The target in the test is T1, OleP (CYP107D1) (Streptomyces antibioticus, UniProt Q59819).
T1 sequence (Q59819 1-407): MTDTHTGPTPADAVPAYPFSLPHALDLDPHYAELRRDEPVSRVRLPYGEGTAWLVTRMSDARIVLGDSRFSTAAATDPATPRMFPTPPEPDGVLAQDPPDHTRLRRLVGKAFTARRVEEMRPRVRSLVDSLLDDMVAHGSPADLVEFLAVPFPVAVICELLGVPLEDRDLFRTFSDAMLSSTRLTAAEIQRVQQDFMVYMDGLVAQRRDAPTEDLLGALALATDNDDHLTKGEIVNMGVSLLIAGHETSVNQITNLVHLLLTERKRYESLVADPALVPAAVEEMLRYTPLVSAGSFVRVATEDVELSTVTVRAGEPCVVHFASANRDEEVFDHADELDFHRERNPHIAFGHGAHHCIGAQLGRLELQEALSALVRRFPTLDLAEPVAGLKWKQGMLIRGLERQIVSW
Briefly: UV-visible Soret spectral titration (type I shift), global hyperbolic fit. In kind it is binding. From the text:
UV-visible Soret spectral titration (type I shift), global hyperbolic fit on OleP (CYP107D1)

For the compound `CC[C@H]1OC(=O)[C@H](C)[C@@H](O)[C@H](C)[C@@H](O)[C@@H](C)C[C@@H](C)C(=O)[C@H](C)[C@@H](O)[C@H]1C` [6DEB], the Kd (usually a measure of binding affinity in units of concentration) is 3.83 ± 0.06 µM.

These data come from PMC9867029, “Effect of Salts on the Conformational Dynamics of the Cytochrome P450 OleP” (Molecules, 2023).
